Consider six compounds from US5723609A, “Bis (hydroxymethyl) cyclobutyl purines” (E. R. Squibb & Sons, Inc., priority 1989, dated 1998).

Experiment [1] has as its system VZV. The experiment can be described thus: VZV plaque reduction antiviral assay in WI-38 cell monolayers. The class given is cell-based, varicella zoster virus. Particulars: Human alphaherpesvirus 3; VZV strain ELLEN; WI-38 cells; 6-7 days at 37° C.; at least 50% plaque reduction; read-out: ID50 (the source's name). How it is done: (§1) Assays were performed in cell culture systems to determine the concentrations of compounds that are effective in preventing several kinds of viral infections.
(§2) HSV-1 (herpes simplex virus type 1, strain Schooler), HSV-2 (herpes simplex virus type 2, strain 186), VZV (varicella zoster virus, strain ELLEN), HCMV (human cytomegalovirus, strain AD 169), MuLV (murine leukemia virus, strain CAS), HIV (human immunodeficiency virus, strain HTLV-IIIB).
(§3) HSV-1, HSV-2, HCMV, and VZV antiviral assays:
(§4) Virus was adsorbed to WI-38 cell culture monolayers in 6 well culture plates (Costar, Cambridge, Mass.) for 1 hour prior to addition of maintenance medium containing duplicate dilutions of the test compound. Inhibition of plaque development was evaluated on fixed and stained monolayers after 4 days incubation at 37° C. for HSV-1 and HSV-2 and after 6-7 days incubation at 37° C. for HCMV and VZV. ID50 values were determined from the drug concentration which conferred at least a 50% plaque reduction compared to virus controls.

In experiment [2] the test system is HSV-2. The experiment can be described thus: HSV-2 plaque reduction antiviral assay in WI-38 cell monolayers. Format: cell-based, herpes simplex virus type 2, strain 186. Here is the method:
as §1, §2, §3, §4

Experiment [3] concerns HCMV. The experiment can be described thus: HCMV plaque reduction antiviral assay in WI-38 cell monolayers. The class given is cell-based, human cytomegalovirus. The note with it: Human betaherpesvirus 5; HCMV strain AD 169; WI-38 cells; 6-7 days at 37° C.; at least 50% plaque reduction; read-out: ID50 (the source's name). How it is done:
as §1, §2, §3, §4

The test system of experiment [4] is HSV-1. The experiment can be described thus: HSV-1 plaque reduction antiviral assay in WI-38 cell monolayers. Format: cell-based, herpes simplex virus type 1. The note with it: Human alphaherpesvirus 1, 96 h; HSV-1 strain Schooler; WI-38 cells; 4 days at 37° C.; at least 50% plaque reduction; read-out: ID50 (the source's name). How it is done:
as §1, §2, §3, §4

For experiment [5], the system named is HIV. The experiment can be described thus: HIV antiviral assay, cytopathic effect in CEM cells (XTT-PMS). Format: cell-based. The note with it: Human immunodeficiency virus 1, CCRF-CEM, 168 h, HIV strain HTLV-IIIB, 7 days at 37° C., inhibits CPE by 50%, read-out: ID50 (the source's name). Here is the method: as §1, §2
HIV antiviral assay: Suspensions of CEM(Nara and Fischinger, Nature, 332:469, 1988) cells were infected at a multiplicity of infection (e.g. virus/cell) of 0.12 with HIV (strain HTLV-III B). […] Following incubation, viable cell numbers were counted in each well using a colorimetric assay following incubation of cells with XTT-PMS solution (XTT tetrazolium reagent plus phenazine methosulfate PMS).
Percent reduction of vital cytopathic effect (CPE) in drug treated compared to untreated virus infected cells, and percent reduction of cell viability in drug treated uninfected cells compared to untreated controls were calculated and plotted versus the drug concentrations tested. […]
(Protection from cytopathic effect is a common read-out in antiviral testing.)

Experiment [6] deals with MuLV. The experiment can be described thus: MuLV antiviral assay, syncytial plaques (SC-1 cells, XC cell overlay). The class given is cell-based. The note with it: Murine leukemia virus, SC1, MuLV strain CAS, read-out: ID50 (the source's name). Here is the method: as §1, §2
Antiviral assays using MuLV were performed with some modification, as described by Rowe et al. and Shannon et al., SC-1 cells were planted at approximately 2×10^5 cell per well in 6 well plates. After overnight incubation at 37° C., the cell cultures were sensitized with DEAE-Dextran for one hour at 37° C., rinsed and inoculated with MuLV. Cultures were re-fed with growth medium containing different concentrations of the test compound. After three more days at 37° C., cultures were re-fed with fresh medium plus test compounds and incubated at 37° C. for an additional 3 days. Cultures were then washed to remove medium, ultraviolet light irradiated, and planted with approximately 5×10^5 XC cells per well in cell growth medium containing the appropriate concentration of the test compound. […] Finally the cultures were rinsed, stained and syncytial plaques were counted.

The mark [7] stands for this setting: Human alphaherpesvirus 2, WI-38, 96 h, read-out: ID50.
The mark [8] stands for this setting: Human alphaherpesvirus 2, 96 h, HSV-2 strain 186, WI-38 cells, 4 days at 37° C., at least 50% plaque reduction, read-out: ID50 (the source's name).

Like-named read-outs stand apart in the source and are kept apart here. Where only a bound is given, the exact number is not on record here.

As to `O=c1[nH]c(=O)n([C@@H]2C[C@H](CO)[C@H]2CO)cc1I` (relative stereo) [(1α,2β,3α)-1-[2,3-Bis(hydroxymethyl)cyclobutyl]-5-iodo-2,4(1H,3H)-pyrimidinedione], the IC50 is 14 to 28 µM in experiment [1], more than 284 µM in experiment [2] (setting [7]), more than 284 µM in experiment [3] and 6 to 14 µM in experiment [4].
As to `Nc1ncnc2c1ncn2[C@@H]1C[C@H](CO)[C@H]1CO` (relative stereo) [(1α,2β,3α)-3-(6-Amino-9H-purin-9-yl)-1,2-cyclobutanedimethanol], the IC50 in experiment [1] was 0.8 to 2 µM; in experiment [2] (setting [8]), 4 to 8 µM; in experiment [5] it was 6.8 µM; in experiment [3], 0.8 µM; in experiment [4] it was 8 µM.
`Nc1ccn([C@@H]2C[C@H](CO)[C@H]2CO)c(=O)n1` (relative stereo) [(1α,2β,3α)-4-Amino-1-[2,3-bis(hydroxymethyl)cyclobutyl]-2(1H)-pyrimidinone]: the IC50 in experiment [1] was 22 µM; in experiment [2] (setting [8]), 444 µM; in experiment [3], 22 to 44 µM; in experiment [4], 444 µM.
With `Nc1nc2c(nnn2[C@@H]2C[C@H](CO)[C@H]2CO)c(=O)[nH]1` (relative stereo) [(1α,2β,3α)-5-Amino-3-[2,3-bis(hydroxymethyl)cyclobutyl]-3,6-dihydro-7H-1,2,3-triazolo[4,5-d]pyrimidin-7-one], the IC50 in experiment [1] was 3.8 to 38 µM; in experiment [2] (setting [8]), 7.5 µM; in experiment [3], 376 µM; in experiment [4], 7.5 µM.
Consider `Nc1nc2c(ncn2[C@@H]2C[C@H](CO)[C@H]2CO)c(=O)[nH]1` (relative stereo) [(1α,2β,3α)-9-[2,3-Bis(hydroxymethyl)cyclobutyl]guanine], for which the IC50 in experiment [1] was 0.2 µM; in experiment [2] (setting [8]), 0.04 to 0.08 µM; in experiment [5] it was 30 µM; in experiment [3], 3.8 µM; in experiment [6], 3.8 µM; in experiment [4], 0.08 to 0.2 µM.
As for `O=c1[nH]c(=O)n([C@@H]2C[C@H](CO)[C@H]2CO)cc1/C=C/Br` (relative stereo) [[1α(E),2β,3α]-1-[2,3-Bis(hydroxymethyl)cyclobutyl]-5-(2-bromoethenyl)-2,4(1H,3H)pyrimidinedione], the IC50 in experiment [1] is 0.03 to 0.06 µM; in experiment [2] (setting [7]), more than 302 µM; in experiment [3], more than 302 µM; in experiment [4] it was 10 to 30 µM.
